Assay results from ChEMBL document CHEMBL1806423, “Cytotoxic 1,2-dialkynylimidazole-based aza-enediynes: aza-Bergman rearrangement rates do not predict cytotoxicity” (J Med Chem, 2011).
The source made the active and inactive calls. The rule behind the calls is not given here.

Key:
[1] = system: A549; assay: Cytotoxicity against human A549 cells after 72 hrs by alamar blue assay; format: functional, cell-based; conditions: A549, 72 h
[2] = molecular target: Albumin (Bos taurus, UniProt P02769); assay: Induction of cleavage of bovine serum albumin at 500 uM after 16 hrs using Coomassie blue by SDS-PAGE; conditions: cattle
Albumin, sequence (P02769 whole entry): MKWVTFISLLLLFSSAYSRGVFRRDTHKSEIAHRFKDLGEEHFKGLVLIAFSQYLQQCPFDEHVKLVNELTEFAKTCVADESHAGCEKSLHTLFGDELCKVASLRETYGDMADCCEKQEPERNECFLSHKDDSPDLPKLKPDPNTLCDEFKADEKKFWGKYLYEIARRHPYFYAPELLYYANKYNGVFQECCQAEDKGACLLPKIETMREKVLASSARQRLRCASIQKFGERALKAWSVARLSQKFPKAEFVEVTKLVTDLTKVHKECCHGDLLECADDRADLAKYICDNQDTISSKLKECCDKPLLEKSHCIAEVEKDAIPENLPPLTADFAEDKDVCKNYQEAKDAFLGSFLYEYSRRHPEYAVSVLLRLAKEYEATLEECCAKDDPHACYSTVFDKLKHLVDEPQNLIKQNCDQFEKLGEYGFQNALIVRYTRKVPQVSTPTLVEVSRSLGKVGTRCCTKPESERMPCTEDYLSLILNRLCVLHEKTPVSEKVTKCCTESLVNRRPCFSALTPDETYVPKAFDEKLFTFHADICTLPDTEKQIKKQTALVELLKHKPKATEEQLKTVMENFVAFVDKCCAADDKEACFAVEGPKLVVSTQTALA

[3] = system: Nucleic Acid; assay: Induction of DNA cleavage of supercoiled phiX174 plasmid DNA assessed as relaxed DNA at 100 uM after 16 hrs by gel electrophoresis; format: nucleic-acid assay; conditions: Enterobacteria phage phiX174
[4] = Thermal stability of the compound assessed as half life at 110 degC; format: physicochemical

Row | Activity [2] | Activity [3] | half-life [4] | SMILES | IC50 [1]
1 |  |  |  | C#Cn1ccnc1C#Cc1ccc(C(C)=O)cc1 | 500 nM
2 |  |  |  | C#Cc1nc2ccccc2n1C#C | 2000 nM
3 |  |  |  | C#Cn1ccnc1C#CCOC | 1000 nM
4 | Not Active | inactive | 17 h | C#Cn1ccnc1C#Cc1ccc(OC)cc1 | 500 nM
5 |  |  |  | C#Cn1ccnc1C#Cc1cc(C(F)(F)F)cc(C(F)(F)F)c1 | 2500 nM
6 |  |  |  | C(#Cn1ccnc1)c1ccccc1 | 9200 nM
7 |  |  |  | COc1ccc(C#Cc2nccn2/C=C\Sc2ccccc2)cc1 | 10100 nM
8 |  |  | 16 h | C#Cn1ccnc1C#Cc1ccc(C(C)(C)C)cc1 | 2500 nM
9 |  |  |  | C(#Cn1ccnc1CCc1ccccc1)c1ccccc1 | > 15000 nM
10 | Not Active | inactive | 32 h | C#Cn1ccnc1C#Cc1ccc([N+](=O)[O-])cc1 | 120 nM
11 |  |  |  | C#Cn1ccnc1C#Cc1ccccc1 | 6000 nM
12 |  |  |  | COc1ccc(C#Cc2nccn2C)cc1 | > 15000 nM
13 |  |  |  | C#Cn1cc(-c2ccc(F)cc2)nc1C#CCCO | 2600 nM
14 |  |  |  | C#Cn1ccnc1C#Cc1ccc(C(F)(F)F)cc1 | 6000 nM
15 |  |  |  | OCC#Cc1nccn1C#CCO | 1900 nM
16 | Not Active | inactive |  | C#Cc1nc(-c2ccc(F)cc2)cn1C#C | 2600 nM
17 |  |  |  | C#Cn1cc(-c2ccccc2)nc1C#Cc1ccc(OC)cc1 | 2000 nM
18 |  |  |  | C#Cn1c(C#Cc2ccc(OC)cc2)nc2ccccc21 | 2900 nM
19 |  |  |  | C#Cn1cnc(-c2ccccc2)c1 | 1100 nM
20 |  |  |  | C#Cc1nc(-c2ccccc2)cn1C#C | 2500 nM
21 |  |  |  | C#Cc1nccn1C#Cc1ccccc1 | 5000 nM
